Our source for the inhibition, IC50 and EC50 values is patent US10183944B2 (Asana Biosciences, LLC, priority 2011, dated 2019).

For test [1], the system named is RBL2H3 cells. Nature of the test: Degranulation assay: β-hexosaminidase release during immune complex mediated degranulation. In kind it is cell-based, rat. The settings on record: Rattus norvegicus, RBL-2H3; for inhibition at 1 µM: read-out: Degranulation % inhibition at 1 μM; for EC50: read-out: Degranulation EC50. The procedure, abridged: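 Fluorometric β-NAG read-out (Ex 355, Em 460 nm; 30 min, RT) of supernatant after DNP-BSA stimulation (45–60 min) of anti-DNP IgE-sensitized RBL2H3 cells. Compounds (0.5% DMSO) added 15 min before antigen; degranulation expressed as % β-hexosaminidase release or inhibition.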

Test [2] addresses Syk (356-635 amino acids) catalytic domain (Homo sapiens (Human), UniProt P43405). Kind of test: Inhibition of enzymatic Syk kinase activity (radiometric). In kind it is biochemical. To be noted: read-out: IC50 Syk. In short, it runs like this:
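Radiometric filter-binding format: 32P transfer from γ-32P-ATP onto pG4T, scintillation-counted after acid washes of P81 paper. Syk kinase domain (356-635), 0.035–7.5 ng per reaction, was exposed to compound for 30 minutes at room temperature before a 10-minute, 30° C. reaction with ATP (100 μM stock). Inhibition derived from counts with versus without compound.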

Test [3] deals with JAK2 (Homo sapiens (Human), UniProt O60674). Kind of test: Inhibition of enzymatic JAK2 kinase activity (TR-FRET). The settings on record: read-out: IC50 JAK. It counts as biochemical. The procedure, abridged:
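TR-FRET read-out (Eu antibody donor, Ulight poly Glu-Tyr acceptor, 665/615 nm ratio) after a 60 min RT kinase reaction with ATP, begun following 30 min compound–enzyme preincubation. Stopped by EDTA; inhibition expressed as 100 minus % activity of positive control.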

[4] abbreviates: Assay Protocol B (96 well format).

Each structure is given as a SMILES string. Where a name gives a salt, the structure may show the parent alone. Read-outs that look alike come from different tables or passages of the source. Some results are limits rather than exact numbers.

Chain of JAK2 (O60674 808-1132): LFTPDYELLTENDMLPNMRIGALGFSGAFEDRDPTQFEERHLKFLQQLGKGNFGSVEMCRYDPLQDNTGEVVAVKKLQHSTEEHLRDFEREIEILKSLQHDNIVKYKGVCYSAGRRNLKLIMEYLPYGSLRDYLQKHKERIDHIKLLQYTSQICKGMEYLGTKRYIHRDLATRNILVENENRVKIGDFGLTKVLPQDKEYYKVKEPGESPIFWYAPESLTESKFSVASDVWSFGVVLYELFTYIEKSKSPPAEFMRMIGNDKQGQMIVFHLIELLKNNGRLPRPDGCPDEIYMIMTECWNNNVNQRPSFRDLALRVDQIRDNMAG

A word on the inhibition: it is the drop in the measured response relative to a control, in per cent. In general, IC50 refers to the concentration needed to halve the response being measured. As for `O=C(O)C1CC12CCN(c1ccc(Nc3nc(-c4ccsc4)nc4cn[nH]c(=O)c34)cc1)CC2` (centres unmarked) [Example 39, 6-(4-(5-oxo-2-(thiophen-3-yl)-5,6-dihydropyrimido[4,5-d]pyridazin-4-ylamino)phenyl)-6-azaspiro[2.5]octane-1-carboxylic acid], the inhibition at 1 µM in test [1] (setting [4]) came to 100%. The IC50 in test [2] and in test [3] was less than 50 nM in each case.

The EC50 is the midpoint of the concentration-response curve. For `O=C(c1ccc(Nc2nc(N3CCCCCC3)nc3cn[nH]c(=O)c23)cc1)N1CCNCC1` [Example 104, 2-(azepan-1-yl)-4-((4-(piperazine-1-carbonyl)phenyl)amino)pyrimido[4,5-d]pyridazin-5(6H)-one hydrochloride], in test [1] (setting [4]), the inhibition at 1 µM was 100% and the EC50 is 110 nM. Moreover, the IC50 in test [2] was less than 50 nM. The half-inhibitory concentration (IC50) in test [3] was less than 10 nM.

With `O=C(O)CN1CCC(Oc2ccc(Nc3nc(N4CCCCCC4)nc4cn[nH]c(=O)c34)cc2)CC1` [Example 254, 2-(4-(4-((2-(azepan-1-yl)-5-oxo-5,6-dihydropyrimido[4,5-d]pyridazin-4-yl)amino)phenoxy)piperidin-1-yl) acetic acid], in test [1] (setting [4]), the inhibition at 1 µM was determined as 24% and the EC50 is 1200 nM. For the same molecule, the IC50 in test [2] was less than 10 nM. The IC50 in test [3] is less than 50 nM.

With `CCN1CCN(c2ccc(Nc3nc(N4CCCCCC4)nc4cn[nH]c(=O)c34)cc2)CC1=O` [Example 175, 2-(azepan-1-yl)-4-((4-(4-ethyl-3-oxopiperazin-1-yl)phenyl)amino) pyrimido[4,5-d]pyridazin-5(6H)-one], in test [1] (setting [4]), the inhibition at 1 µM is 98% and the EC50 came to 6 nM. The IC50 in test [2] was less than 10 nM. The IC50 in test [3] is less than 10 nM.

For the molecule `CC(C)(O)C1CCN(c2ccc(Nc3nc(N4CCC(CC#N)CC4)nc4cn[nH]c(=O)c34)cc2)CC1` [Example 146, 2-(1-(4-((4-(4-(2-hydroxypropan-2-yl)piperidin-1-yl)phenyl)amino)-5-oxo-5,6-dihydropyrimido[4,5-d]pyridazin-2-yl)piperidin-4-yl)acetonitrile], in test [1] (setting [4]), the inhibition at 1 µM worked out at 66% and the EC50 stood at 26 nM. Also, in test [2], the IC50 is less than 10 nM. Moreover, in test [3], the IC50 was less than 50 nM.

With `O=c1[nH]ncc2nc(-c3ccccc3)nc(Nc3ccc(N(CCO)CCO)cc3)c12` [Example 10, 4-(4-(bis(2-hydroxyethyl)amino)phenylamino)-2-phenylpyrimido[4,5-d]pyridazin-5(6H)-one], the inhibition at 1 µM in test [1] (Assay Protocol A (24 well format)) was determined as 100%. Further, the IC50 in test [2] was less than 50 nM; in test [3], less than 100 nM.

As for `N#CCC1CCN(c2nc(Nc3ccc(N4CCCN(CCO)CC4)cc3)c3c(=O)[nH]ncc3n2)CC1` [Example 264, 2-(1-(4-((4-(4-(2-hydroxyethyl)-1,4-diazepan-1-yl)phenyl)amino)-5-oxo-5,6-dihydropyrimido[4,5-d]pyridazin-2-yl)piperidin-4-yl)acetonitrile], in test [1] (setting [4]), the inhibition at 1 µM came to 75% and the EC50 turned out to be 54 nM. The IC50 in test [2] was less than 10 nM. The IC50 in test [3] is less than 10 nM.

Take `CC1(O)CCN(CCOc2ccc(Nc3nc(N4CCCCCC4)nc4cn[nH]c(=O)c34)cc2)CC1` [Example 184, 2-(azepan-1-yl)-4-((4-(2-(4-hydroxy-4-methylpiperidin-1-yl)ethoxy)phenyl)amino)pyrimido[4,5-d]pyridazin-5(6H)-one]: in test [1] (setting [4]), the inhibition at 1 µM came out at 65% and the EC50 worked out at 33 nM. The concentration for half-maximal inhibition (IC50) in test [2] is less than 10 nM. Besides, the 50% inhibitory concentration (IC50) in test [3] was less than 10 nM.

For the molecule `O=c1[nH]ncc2nc(N3CCCCCC3)nc(Nc3ccc(CCCN4CCNCC4)cc3)c12` [Example 173, 2-(azepan-1-yl)-4-((4-(3-(piperazin-1-yl)propyl)phenyl)amino)pyrimido[4,5-d]pyridazin-5(6H)-one], in test [1] (setting [4]), the inhibition at 1 µM stood at 66% and the EC50 was 29 nM. Also, in test [2], the IC50 was less than 50 nM. Moreover, the IC50 in test [3] is less than 50 nM.

`O=c1[nH]ncc2nc(N3CCCCCC3)nc(Nc3ccc(N4CCN(CC(O)CO)CC4)cc3)c12` (centres unmarked) [Example 273, 2-(azepan-1-yl)-4-((4-(4-(2,3-dihydroxypropyl)piperazin-1-yl)phenyl)amino)pyrimido[4,5-d]pyridazin-5(6H)-one]: in test [1] (setting [4]), the inhibition at 1 µM was 91% and the EC50 worked out at 21 nM. For the same molecule, the IC50 in test [2] was less than 10 nM. For the same molecule, the IC50 in test [3] was less than 10 nM.

For `O=c1[nH]ncc2nc(-c3ccsc3)nc(Nc3ccc(CN4CCNCC4)cc3)c12` [Example 24, 4-(4-(piperazin-1-ylmethyl)phenylamino)-2-(thiophen-3-yl) pyrimido[4,5-d]pyridazin-5(6H)-one hydrochloride], in test [1] (setting [4]), the inhibition at 1 µM worked out at 83%. Moreover, the values for the IC50 in test [2] and in test [3] were less than 10 nM and less than 100 nM, respectively.

Turning to `CCN1CCN(c2ccc(Nc3nc(N4CCC(CC#N)CC4)nc4cn[nH]c(=O)c34)cc2)CC1` [Example 187, 2-(1-(4-((4-(4-ethylpiperazin-1-yl)phenyl)amino)-5-oxo-5,6-dihydropyrimido[4,5-d]pyridazin-2-yl)piperidin-4-yl)acetonitrile], in test [1] (setting [4]), the inhibition at 1 µM was 100% and the concentration for a half-maximal effect (EC50) was determined as 12 nM. The IC50 in test [2] was less than 10 nM. In test [3], the IC50 was less than 50 nM.

Consider `O=c1[nH]ncc2nc(N3CCCCCC3)nc(Nc3ccc(N4CCCC(O)C4)nc3)c12` (centres unmarked) [Example 277, 2-(azepan-1-yl)-4-((6-(3-hydroxypiperidin-1-yl)pyridin-3-yl)amino)pyrimido[4,5-d]pyridazin-5(6H)-one], for which, in test [1] (setting [4]), the inhibition at 1 µM came to 74% and the EC50 turned out to be 42 nM. Further, in test [2], the concentration for half-maximal inhibition (IC50) was less than 10 nM. Further, the IC50 in test [3] was less than 50 nM.

On to `N#CCC1CCN(c2nc(Nc3ccc(N4CCC(CC(=O)O)CC4)nc3)c3c(=O)[nH]ncc3n2)CC1` [Example 116, 2-(1-(5-((2-(4-(cyanomethyl)piperidin-1-yl)-5-oxo-5,6-dihydropyrimido[4,5-d]pyridazin-4-yl)amino)pyridin-2-yl)piperidin-4-yl)acetic acid], for which the inhibition at 1 µM in test [1] (setting [4]) is 65%. In test [1] (setting [4]), the EC50 was 273 nM. Moreover, the IC50 in test [2] and in test [3] was less than 50 nM throughout.

In the case of `CN1CCN(c2ccc(Nc3nc(N4CCC(CC#N)CC4)nc4cn[nH]c(=O)c34)cc2)CC1` [Example 248, 2-(1-(4-((4-(4-methylpiperazin-1-yl)phenyl)amino)-5-oxo-5,6-dihydropyrimido[4,5-d]pyridazin-2-yl)piperidin-4-yl)acetonitrile], in test [1] (setting [4]), the inhibition at 1 µM was 99% and the half-maximal effective concentration (EC50) turned out to be 19 nM. Moreover, the concentration for half-maximal inhibition (IC50) in test [2] is less than 10 nM. Also, the IC50 in test [3] was less than 10 nM.

As to `CCN1CCN(c2ccc(Nc3nc(N4CCC(CC#N)CC4)nc4cn[nH]c(=O)c34)cc2)CC1=O` [Example 178, 2-(1-(4-((4-(4-ethyl-3-oxopiperazin-1-yl)phenyl)amino)-5-oxo-5,6-dihydropyrimido[4,5-d]pyridazin-2-yl)piperidin-4-yl)acetonitrile], in test [1] (setting [4]), the inhibition at 1 µM is 73% and the EC50 turned out to be 39 nM. For the same molecule, in test [2], the IC50 is less than 10 nM. Besides, the half-inhibitory concentration (IC50) in test [3] was less than 10 nM.

For the molecule `O=c1[nH]ncc2nc(N3CCCCCC3)nc(Nc3ccc(OC4CCN(CCO)CC4)cc3)c12` [Example 329, 2-(azepan-1-yl)-4-((4-((1-(2-hydroxyethyl)piperidin-4-yl)oxy)phenyl)amino) pyrimido[4,5-d]pyridazin-5(6H)-one], in test [1] (setting [4]), the inhibition at 1 µM is 69% and the concentration for a half-maximal effect (EC50) was determined as 62 nM. The IC50 in test [2] was less than 10 nM. In addition, in test [3], the IC50 is less than 10 nM.

`O=c1[nH]ncc2nc(N3CCCCCC3)nc(Nc3ccc(N4CCN(CCF)CC4)cc3)c12` [Example 275, 2-(azepan-1-yl)-4-((4-(4-(2-fluoroethyl)piperazin-1-yl)phenyl)amino) pyrimido[4,5-d]pyridazin-5(6H)-one]: in test [1] (setting [4]), the inhibition at 1 µM worked out at 73% and the EC50 was found to be 15 nM. Moreover, the IC50 in test [2] was less than 10 nM. The IC50 in test [3] is less than 10 nM.

As to `O=c1[nH]ncc2nc(N3CCCCCC3)nc(Nc3ccc(OCCN4CCNCC4)cc3)c12` [Example 107, 2-(azepan-1-yl)-4-((4-(2-(piperazin-1-yl)ethoxy)phenyl)amino)pyrimido[4,5-d]pyridazin-5(6H)-one], the inhibition at 1 µM in test [1] (setting [4]) came to 91%. Also, in test [1] (setting [4]), the EC50 was found to be 94 nM. Further, the values for the half-maximal inhibitory concentration (IC50) in test [2] and in test [3] were less than 10 nM and less than 50 nM, respectively.

For the molecule `O=C(O)C1CCN(Cc2ccc(Nc3nc(-c4ccccc4)nc4cn[nH]c(=O)c34)cc2)CC1` [Example 35, 1-(4-(5-oxo-2-phenyl-5,6-dihydropyrimido[4,5-d]pyridazin-4-ylamino)benzyl)piperidine-4-carboxylic acid], in test [1] (setting [4]), the inhibition at 1 µM is 19%. The IC50 in test [2] and in test [3] was less than 50 nM throughout.

On to `CC1CN(c2nc(Nc3ccc(N4CCC(CC(=O)O)CC4)cc3)c3c(=O)[nH]ncc3n2)CC(C)O1` (centres unmarked) [Example 121, 2-(1-(4-((2-(2,6-dimethylmorpholino)-5-oxo-5,6-dihydropyrimido[4,5-d]pyridazin-4-yl)amino)phenyl)piperidin-4-yl)acetic acid], for which, in test [1] (setting [4]), the inhibition at 1 µM stood at 98% and the EC50 worked out at 156 nM. Also, the IC50 in test [2] was less than 50 nM. Moreover, in test [3], the IC50 was less than 50 nM.
